Test results as given in patent publication US8580852B2, “2-oxamide inhibitors of phospholipase A2 activity and cellular arachidonate release based on dipeptides and pseudopeptides” (The Regents of the University of California, priority 2009, dated 2013).
Where “and” joins values, the source holds several entries; their conditions need not be identical. Equal entries are not always repeated. Where two headings read alike, the source gives them in different places.

Key:
RAW 264.7 macrophages = test: Inhibition of Kdo2-Lipid A stimulated arachidonic acid release; type: cell-based; conditions: for Effect on AA release (in words): 25 μM inhibitor; for Effect on AA release (in words) / IC50: Kdo2-Lipid A; for IC50 / inhibition at 25 µM: Mus musculus; for IC50: RAW264.7, RAW 264.7 cells, half maximal of the maximum inhibition observed; for inhibition at 25 µM: RAW264.7, read-out: AA Release Inhibition (%)
From the text: Arachidonic acid (AA) is the ideal metabolic indicator of GIVA cPLA2 activity, since it is the product of GIVA cPLA2-mediated catalysis. In addition to some of the new 2-oxoamides based on dipeptides and pseudodipeptides that were synthesized in this work, a series of potent 2-oxoamide in vitro inhibitors of GIVA cPLA2, previously reported by us, were further tested in a cellular ex vivo system to investigate whether they reduced cellular AA production. For this purpose, RAW 264.7 macrophages were preincubated with 25 μM concentrations of the inhibitor prior to treatment of the cells with Kdo2-Lipid A. Subsequently, AA release was quantitated from the supernatants.
RAW 264.7 macrophages were maintained in a humidified atmosphere at 37° C. with 5% CO2, as described elsewhere.^36 The cells were cultured in DMEM media that was supplemented with 10% fetal bovine serum, 2 mM glutamine, 100 units/mL penicillin, 100 μg/ml streptomycin, and non-essential amino acids. The cells were plated at a confluency of 2×10^6 cells per well in 6 well tissue culture plates and allowed to adhere overnight. Inhibitors were added to the medium 30 min before Kdo2-Lipid A was added and the supernatants were collected at 1 hour following stimulation. Subsequently, AA was extracted from the supernatants and quantitated by HPLC-MS, as described elsewhere.^36, 37 AA release levels were normalized to pmol AA release per million cells though DNA quantitation using the Broad Range DNA Quant-Kit (Invitrogen). IC50 values were determined by estimating the concentration of inhibitor required for half maximal inhibition of the maximum inhibition observed with a given inhibitor.

GIVA cPLA2 [1] = target: T1, GIVA cPLA2 (Homo sapiens, UniProt P47712); conditions: in vitro; inhibitors previously reported; also inhibit GVIA iPLA2 and GV sPLA2; cited from earlier work
T1 sequence (P47712 1-749): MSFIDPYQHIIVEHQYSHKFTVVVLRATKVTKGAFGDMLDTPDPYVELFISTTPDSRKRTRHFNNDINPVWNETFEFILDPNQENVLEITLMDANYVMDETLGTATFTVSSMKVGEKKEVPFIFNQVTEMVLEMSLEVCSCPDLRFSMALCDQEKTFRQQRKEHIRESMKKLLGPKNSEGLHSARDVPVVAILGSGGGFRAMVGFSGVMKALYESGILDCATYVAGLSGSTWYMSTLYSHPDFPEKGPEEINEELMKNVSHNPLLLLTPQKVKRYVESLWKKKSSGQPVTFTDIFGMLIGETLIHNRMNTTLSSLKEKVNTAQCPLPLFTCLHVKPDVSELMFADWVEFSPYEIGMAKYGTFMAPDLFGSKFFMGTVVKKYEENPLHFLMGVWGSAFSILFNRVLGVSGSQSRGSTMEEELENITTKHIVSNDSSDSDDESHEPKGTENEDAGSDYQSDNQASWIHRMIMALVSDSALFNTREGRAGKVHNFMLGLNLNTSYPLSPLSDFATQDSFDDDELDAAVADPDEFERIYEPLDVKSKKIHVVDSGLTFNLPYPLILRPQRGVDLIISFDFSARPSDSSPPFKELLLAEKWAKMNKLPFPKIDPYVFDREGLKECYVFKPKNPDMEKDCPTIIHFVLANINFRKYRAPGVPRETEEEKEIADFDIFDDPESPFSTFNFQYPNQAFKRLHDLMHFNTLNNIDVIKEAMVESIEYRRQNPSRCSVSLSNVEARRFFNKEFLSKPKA

GIVA cPLA2 [2] = target: T1, GIVA cPLA2; test: In vitro PLA2 mixed micellar assay (modified Dole assay), GIVA cPLA2; type: biochemical; conditions: for GIVA cPLA2 X1(50): mixed micelles, mole fraction of inhibitor in total substrate interface required to inhibit the enzyme by 50%; for GIVA cPLA2 % inhibition: at 0.091 mole fraction of inhibitor, n = 3
Description: (§1) All the inhibitors synthesized in this work were tested for inhibition of GIVA cPLA2, GVIA iPLA2 and GV sPLA2 using mixed micellar assays. Details for the assays have been published previously. The results of the inhibition are presented in Table 1 using either percent inhibition or XI(50) values. Initially, the percent inhibition of each PLA2 at 0.091 mole fraction of inhibitor was determined. XI(50) values were estimated when the percent inhibition was higher than 90%. The XI(50) is the mole fraction of the inhibitor in the total substrate interface required to inhibit the enzyme by 50%. Data for the reference 2-oxoamide inhibitors AX006 and AX048 are included in Table 1 for comparison. Phospholipase A2 activity was determined using the previously described modified Dole assay with buffer and substrate conditions optimized for each enzyme as described previously: (i) GIVA cPLA2 substrate mixed-micelles were composed of 400 μM Triton […]-labeled PAPC, and 3 μM PIP2 in buffer containing 100 mM HEPES pH 7.5, 90 μM CaCl2, 2 mM DTT and 0.1 mg/ml BSA; (ii) GVI iPLA2 substrate mixed-micelles were composed of either (a) 400 μM Triton X-100, 99 μM DPPC, and 1.5 μM ^14C-labeled DPPC in buffer containing 200 mM HEPES pH 7.0, 1 mM ATP, 2 mM DTT and 0.1 mg/ml BSA or (b) 400 μM Triton X-100, 98.3 μM PAPC, and 1.7 μM ^14C-labeled PAPC in buffer containing 100 mM HEPES pH 7.5, 2 mM ATP and 4 mM DTT; and (iii) GV sPLA2 substrate mixed-micelles were composed of 400 μM Triton X-100, 99 μM DPPC, and 1.5 μM ^14C-labeled DPPC in buffer containing 50 mM Tris pH 8.0 and 5 mM CaCl2. Initial screening of compounds at 0.091 mole fraction inhibitor in mixed-micelles was carried out. Compounds displaying 25% or less inhibition had no inhibitory affect (designated N.D.). The average percent inhibition (and standard error, n=3) for compounds displaying more than 25% and less than 90% enzyme inhibition is reported herein. If the percent inhibition was greater than 90%, then its XI(50) was determined by plotting percent inhibition vs. inhibitor molar fraction (7 points; typically 0.005 to 0.091 mole fraction). Inhibition curves were modeled in Graphpad Prism using either a linear (x, y intercept=0) or non-linear regression (one-site binding model-hyperbola, BMAX=100) to calculate the reported XI(50) and associated error values.

GV sPLA2 = target: T2, GV sPLA2 (Homo sapiens, UniProt P39877); test: In vitro PLA2 mixed micellar assay (modified Dole assay), GV sPLA2; type: biochemical; conditions: at 0.091 mole fraction of inhibitor, n = 3
T2 sequence (P39877 21-138): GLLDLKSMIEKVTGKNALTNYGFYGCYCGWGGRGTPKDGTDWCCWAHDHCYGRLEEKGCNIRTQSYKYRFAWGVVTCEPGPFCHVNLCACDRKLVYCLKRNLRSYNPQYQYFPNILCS
Description: as §1

[3] = read-out: IC50 for the inhibition of arachidonic acid release
[4] = read-out: IC50 for the inhibition of arachidonic acid release (text)
[5] = 25 μM inhibitor preincubated, Kdo2-Lipid A stimulation, RAW 264.7 macrophages

Compound | Effect on AA release (in words) (RAW 264.7 macrophages; RAW 264.7 macrophages) | IC50 (RAW 264.7 macrophages; [4]) | inhibition at 25 µM (RAW 264.7 macrophages; [5]) | melting point | also measured
CCC(=O)C(=O)NCCCC(=O)O [Compound 19] | significant reduction of AA release | ~25 µM | 52 ± 5% | – | IC50 (RAW 264.7 macrophages; [3]): 25 µM
CCC[C@@H](/C=C/C(=O)OC)NC(=O)C(=O)CC [Compound 29] | – | – | – | – | Inhibition of GIVA cPLA2 (in words) (GIVA cPLA2 [1]): inhibit GIVA cPLA2 to a high extent, though not selectively
CCC(=O)C(=O)N[C@@H](C)CCC(=O)OC(C)(C)C [Compound 31] | – | – | – | – | Inhibition of GIVA cPLA2 (in words) (GIVA cPLA2 [1]): inhibit GIVA cPLA2 to a high extent, though not selectively
CCC[C@@H](CCC(=O)O)NC(=O)C(=O)CC [Compound 26] | significant reduction of AA release | ~25 µM | 79 ± 0.5% | – | IC50 (RAW 264.7 macrophages; [3]): 25 µM
CCCCCCCCCCCCCCC(=O)C(=O)N[C@H](C(=O)NCC(=O)OC(C)(C)C)C(C)C [Compound 8b, (S)-tert-Butyl-2-(3-methyl-2-(2-oxohexadecanamido)butanamido)-acetate] | – | – | 30% | 58 to 61 °C | AA Release Inhibition (%) (RAW 264.7 macrophages; [5]): 30 ± 2%; GIVA cPLA2 X1(50) (GIVA cPLA2 [2]): 0.028 ± 0.015 mole fraction
CCC[C@@H](CCCC(=O)O)NC(=O)C(=O)CC [Compound 35] | significant reduction of AA release | 7 µM | – | – | IC50 (RAW 264.7 macrophages; [3]): 7 µM
CCC[C@@H](/C=C/C(=O)O)NC(=O)C(=O)CC [Compound 30] | significant reduction of AA release | ~25 µM | 74 ± 8% | – | IC50 (RAW 264.7 macrophages; [3]): 25 µM
CCCCCCCCCCCCCCC(=O)C(=O)N[C@@H](CCCC)C(=O)NCC(=O)OC [Compound 4a, (S)-Methyl 2-(2-(2-oxohexadecanamido)hexanamido)acetate] | – | – | – | 65 to 67 °C | GV sPLA2 % inhibition (GV sPLA2): 65%; GIVA cPLA2 X1(50) (GIVA cPLA2 [2]): 0.021 ± 0.009 mole fraction
CCCCCCCCCCCCCCC(=O)C(=O)N[C@@H](CCCC)C(=O)NCC(=O)OCC [Compound 4c, (S)-Ethyl 2-(2-(2-oxohexadecanamido)hexanamido)acetate] | – | – | – | 63 to 65 °C | GV sPLA2 % inhibition (GV sPLA2): 63%; GIVA cPLA2 % inhibition (GIVA cPLA2 [2]): 73%
CCC[C@@H](/C=C/C=C/C(=O)O)NC(=O)C(=O)CC [Compound 28] | – | – | 6 ± 10% | – | –
CCCCCCCCCCCCCCC(=O)C(=O)N[C@@H](CCCC)C(=O)NCC(=O)O [Compound 9a, (S)-2-(2-(2-Oxohexadecanamido)hexanamido)acetic Acid] | – | – | – | – | inhibition at 0.091 mole fraction (GV sPLA2): < 25%; GIVA cPLA2 X1(50) (GIVA cPLA2 [2]): 0.035 ± 0.014 mole fraction
CCCCCCCCCCCCCCC(=O)C(=O)N[C@H](C(=O)NCC(=O)OC)C(C)C [Compound 4b, (S)-Methyl-2-(3-methyl-2-(2-oxohexadecanamido)butanamido)-acetate] | – | – | – | 118 to 119 °C | inhibition at 0.091 mole fraction (GV sPLA2): < 25%; GIVA cPLA2 % inhibition (GIVA cPLA2 [2]): 25%
CCC(=O)C(=O)N[C@H](CCC(=O)O)CC(C)C [Compound 25] | significant reduction of AA release | ~25 µM | 62 ± 5% | – | IC50 (RAW 264.7 macrophages; [3]): 25 µM
CCCCCCCCCCCCCCC(=O)C(=O)N[C@@H](CCCC)COCC(=O)OCC [Compound 13, (S)-Ethyl 2-(2-(2-oxohexadecanamido)hexyloxy)acetate] | – | – | – | 41 to 43 °C | GIVA cPLA2 % inhibition (GIVA cPLA2 [2]): 52%
CCCCCCCCCCCCCCC(=O)C(=O)N[C@@H](CCCC)COCC(=O)OC(C)(C)C [Compound 17, (S)-tert-Butyl 2-(2-(2-oxohexadecanamido)hexyloxy)acetate] | – | – | – | – | GV sPLA2 % inhibition (GV sPLA2): 57%; GIVA cPLA2 % inhibition (GIVA cPLA2 [2]): 44%
CCCCCCCCCCCCCCC(=O)C(=O)N[C@H](C(=O)NCC(=O)O)C(C)C [Compound 9b, (S)-2-(3-Methyl-2-(2-oxohexadecanamido)butanamido)acetic Acid] | – | – | – | 87 to 89 °C | inhibition at 0.091 mole fraction (GV sPLA2): < 25%; GIVA cPLA2 X1(50) (GIVA cPLA2 [2]): 0.061 ± 0.017 mole fraction
CCCCCCCCCCCCCCC(=O)C(=O)N[C@@H](CCCC)COCC(=O)O [Compound 18, (S)-2-(2-(2-oxohexadecanainido)hexyloxy)acetic Acid] | significant reduction of AA release | 2 µM | 68% | 64 to 66 °C | inhibition at 0.091 mole fraction (GV sPLA2): < 25%; GIVA cPLA2 X1(50) (GIVA cPLA2 [2]): 0.017 mole fraction and 0.017 ± 0.002 mole fraction
CCCCCCCCCCCCCCC(=O)C(=O)N[C@@H](CCCC)C(=O)NCC(=O)OC(C)(C)C [Compound 8a, (S)-tert-Butyl 2-(2-(2-oxohexadecanamido)hexanamido)acetate] | – | – | – | 38 to 39 °C | GV sPLA2 % inhibition (GV sPLA2): 59%; GIVA cPLA2 % inhibition (GIVA cPLA2 [2]): 72%
